Laboratory results: ChEMBL document CHEMBL1151354, “Isofraxidin, a cytotoxic coumarin from Micrandra elata (Euphorbiaceae)” (1980)
Values after ≈ are worked out from the molar mass of the structure shown.

Columns and labels:
P388 = experiment: Cytotoxicity against mouse P388 cells; type: functional; conditions: read-out: ED50 (the source's name)
KB = experiment: Cytotoxicity against human KB cells; type: functional; conditions: read-out: ED50 (the source's name)

Compound: COc1cc2ccc(=O)oc2c(OC)c1O
- EC50 (P388): 1.7 µg/mL (≈ 7.65 µM)
- EC50 (KB): > 100 µg/mL
